Like-named read-outs stand apart in the source and are kept apart here.
Tests used:
BTK-wt = target: T1, BTK-wt (Homo sapiens, UniProt Q06187); test: HotSpot kinase enzymatic assay, BTK-wt; assay type: biochemical
T1 construct: purchased Reaction Biology Corporation
Description: Kinase enzymatic assays for BTK, BMX, TXK, TEC, ITK, EGFR, ERBB2, ERBB4, and JAK3 were performed at Reaction Biology Corporation (www.reactionbiology.com, Malvern, PA, USA) using the HotSpot assay platform. Briefly, specific kinase/substrate pairs and the required cofactors were prepared in a reaction buffer comprising 20 mM HEPES (pH 7.5), 10 mM MgCl2, 1 mM EGTA, 0.02% Brij35, 0.02 mg/mL BSA, 0.1 mM Na3VO4, 2 mM DTT, and 1% DMSO. The compounds were added to the reaction mixture and allowed to incubate. Approximately 20 min later, a mixture of ATP (Sigma-Aldrich, St. Louis, MO, USA) and ^33P ATP (PerkinElmer, Waltham, MA, USA) was added to the reaction mixture at a final concentration of 10 μM. The reactions were performed at room temperature for 120 min; subsequently, the reactions were spotted onto P81 ion exchange filter papers (Whatman Inc., Maidstone, UK). […] GraphPad Prism software was used to obtain the IC50 values and perform curve fitting.

ERBB2 = target: T2, ERBB2 (Homo sapiens, UniProt P04626); test: HotSpot kinase enzymatic assay, ERBB2; assay type: biochemical; details: mean of two experiments
T2 construct: purchased Reaction Biology Corporation
Description: Therefore, efforts have focused on developing new compounds with good selectivity profiles. […] Compound 8 was selective against BTK. The biochemical activities of compound 8 differed among TEC family kinases. […] The inhibitory potential of compound 8 differed between members of the EGFR family. […] The inhibitory activity of compound 8 against JAK3 was also low.
Kinase enzymatic assays for BTK, BMX, TXK, TEC, ITK, EGFR, ERBB2, ERBB4, and JAK3 were performed at Reaction Biology Corporation (www.reactionbiology.com, Malvern, PA, USA) using the HotSpot assay platform. Briefly, specific kinase/substrate pairs and the required cofactors were prepared in a reaction buffer comprising 20 mM HEPES (pH 7.5), 10 mM MgCl2, 1 mM EGTA, 0.02% Brij35, 0.02 mg/mL BSA, 0.1 mM Na3VO4, 2 mM DTT, and 1% DMSO. The compounds were added to the reaction mixture and allowed to incubate. Approximately 20 min later, a mixture of ATP (Sigma-Aldrich, St. Louis, MO, USA) and ^33P ATP (PerkinElmer, Waltham, MA, USA) was added to the reaction mixture at a final concentration of 10 μM. The reactions were performed at room temperature for 120 min; subsequently, the reactions were spotted onto P81 ion exchange filter papers (Whatman Inc., Maidstone, UK). Any unbound phosphate was removed by thoroughly washing the filter papers with 0.75% phosphoric acid. […]

[1] = GIT-PAMPA in vitro permeability assay; assay type: in vitro ADME
Description: GIT-PAMPA was performed according to the manufacturer’s instructions (Pion Inc., Billerica, MA, USA). Briefly, the test compound was diluted in donor buffer (pH 7.4) to obtain a concentration of 50 μM. Then, 200 μL of this solution was added to the lower part of a 96-well PAMPA sandwich plate. The transmembrane side of the donor part was coated with a GIT-0 lipid solution, and 200 μL of the acceptor buffer was added to the upper part of the PAMPA sandwich plate. After incubating for 4 h at 25 °C, each sample was transferred to a fresh UV plate, after which the UV spectra were measured at wavelengths of 250–498 nm, and the permeability rate (Pe, 10^−6 cm/sec) was analyzed using the Pion PAMPA Explorer software (version 3.8, Pion Inc., Billerica, MA, USA).

CYP2C9 = target: T3, CYP2C9 (Homo sapiens, UniProt P11712); test: P450-Glo CYP inhibition assay, CYP2C9; assay type: in vitro ADME
T3 construct: purchased Promega V9790
Description: (§1) The potential for CYP450 inhibition (CYP1A2, 2C9, 2C19, 2D6, and […]) was assessed using Promega P450-Glo^TM CYP450 assay systems. Luciferin-ME served as the substrate for CYP1A2, and the inhibitor α-naphthoflavone was used as a positive control. Luciferin-H was used as the substrate for CYP2C9, and the inhibitor sulfaphenazole was used as a positive control. Luciferin-H EGE was selected as the substrate for CYP2C19, whereas the inhibitor amitriptyline served as a positive control. Luciferin-ME EGE was used as the substrate for CYP2D6, whereas the inhibitor quinidine served as a positive control. Luciferin-BE was used as the substrate for CYP3A4, whereas the inhibitor ketoconazole was used as a positive control. The assays were performed using the excitation and emission wavelengths recommended by the manufacturer. Briefly, a CYP enzyme and a P450-Glo™ substrate were combined in potassium phosphate (0.1 M KPO4) buffer, with or without a test compound of interest, and […]. The reaction was initiated by adding two volumes of 2 times concentrated NADPH regeneration system. […] Luminescence was subsequently measured using a Tecan Infinite M1000 PRO microplate reader (Tecan Group Ltd., Switzerland). The percent inhibition was calculated relative to that of the positive control at a fixed concentration. […]

CYP3A4 = target: T4, CYP3A4 (Homo sapiens, UniProt P08684); test: P450-Glo CYP inhibition assay, CYP3A4; assay type: in vitro ADME
T4 construct: purchased Promega V9920
Description: as §1

[2] = % inhibition of human CYP isozymes at 10 μM

T1 sequence (Q06187 whole entry): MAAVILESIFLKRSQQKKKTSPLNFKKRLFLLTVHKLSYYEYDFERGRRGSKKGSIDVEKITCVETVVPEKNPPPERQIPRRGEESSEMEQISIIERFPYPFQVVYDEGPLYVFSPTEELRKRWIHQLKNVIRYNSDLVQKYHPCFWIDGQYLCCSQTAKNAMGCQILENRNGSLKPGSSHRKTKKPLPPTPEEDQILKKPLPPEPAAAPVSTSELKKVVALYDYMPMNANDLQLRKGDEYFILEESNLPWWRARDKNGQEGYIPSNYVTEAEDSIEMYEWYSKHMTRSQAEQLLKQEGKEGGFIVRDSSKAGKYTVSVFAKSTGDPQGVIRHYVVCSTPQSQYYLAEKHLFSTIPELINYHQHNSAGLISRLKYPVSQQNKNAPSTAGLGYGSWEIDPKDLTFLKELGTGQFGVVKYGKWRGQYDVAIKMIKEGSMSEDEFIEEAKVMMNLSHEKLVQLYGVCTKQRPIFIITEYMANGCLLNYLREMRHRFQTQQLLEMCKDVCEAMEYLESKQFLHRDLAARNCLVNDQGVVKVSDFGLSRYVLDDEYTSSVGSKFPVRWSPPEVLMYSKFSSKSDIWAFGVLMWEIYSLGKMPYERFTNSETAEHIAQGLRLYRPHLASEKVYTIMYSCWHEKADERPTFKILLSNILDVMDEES
T4 sequence (P08684 whole entry): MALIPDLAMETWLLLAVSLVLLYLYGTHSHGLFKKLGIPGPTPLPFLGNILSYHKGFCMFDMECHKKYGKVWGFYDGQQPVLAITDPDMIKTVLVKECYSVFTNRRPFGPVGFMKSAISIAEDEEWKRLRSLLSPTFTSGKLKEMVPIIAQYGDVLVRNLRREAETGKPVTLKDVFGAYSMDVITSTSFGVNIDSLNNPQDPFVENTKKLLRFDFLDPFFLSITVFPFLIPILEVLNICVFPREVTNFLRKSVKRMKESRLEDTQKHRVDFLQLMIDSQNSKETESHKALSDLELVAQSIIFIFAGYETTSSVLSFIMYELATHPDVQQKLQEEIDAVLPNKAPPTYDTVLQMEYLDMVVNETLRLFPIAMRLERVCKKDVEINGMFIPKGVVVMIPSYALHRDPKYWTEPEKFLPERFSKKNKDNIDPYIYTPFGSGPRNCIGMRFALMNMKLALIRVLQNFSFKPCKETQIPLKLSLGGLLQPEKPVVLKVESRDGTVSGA
T3 sequence (P11712 whole entry): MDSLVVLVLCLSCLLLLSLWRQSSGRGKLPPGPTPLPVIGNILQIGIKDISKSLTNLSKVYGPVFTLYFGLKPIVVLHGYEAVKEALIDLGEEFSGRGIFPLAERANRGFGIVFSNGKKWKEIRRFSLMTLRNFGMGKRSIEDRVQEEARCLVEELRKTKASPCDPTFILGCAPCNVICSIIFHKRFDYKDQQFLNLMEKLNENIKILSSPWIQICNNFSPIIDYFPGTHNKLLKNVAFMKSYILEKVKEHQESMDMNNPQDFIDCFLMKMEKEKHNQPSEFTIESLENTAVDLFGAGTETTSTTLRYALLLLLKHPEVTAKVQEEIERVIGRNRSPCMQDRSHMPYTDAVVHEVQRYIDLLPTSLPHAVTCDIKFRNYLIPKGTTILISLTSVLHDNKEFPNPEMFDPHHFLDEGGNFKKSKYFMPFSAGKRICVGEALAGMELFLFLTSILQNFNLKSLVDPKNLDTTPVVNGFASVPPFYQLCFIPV
T2 sequence (P04626 23-1255): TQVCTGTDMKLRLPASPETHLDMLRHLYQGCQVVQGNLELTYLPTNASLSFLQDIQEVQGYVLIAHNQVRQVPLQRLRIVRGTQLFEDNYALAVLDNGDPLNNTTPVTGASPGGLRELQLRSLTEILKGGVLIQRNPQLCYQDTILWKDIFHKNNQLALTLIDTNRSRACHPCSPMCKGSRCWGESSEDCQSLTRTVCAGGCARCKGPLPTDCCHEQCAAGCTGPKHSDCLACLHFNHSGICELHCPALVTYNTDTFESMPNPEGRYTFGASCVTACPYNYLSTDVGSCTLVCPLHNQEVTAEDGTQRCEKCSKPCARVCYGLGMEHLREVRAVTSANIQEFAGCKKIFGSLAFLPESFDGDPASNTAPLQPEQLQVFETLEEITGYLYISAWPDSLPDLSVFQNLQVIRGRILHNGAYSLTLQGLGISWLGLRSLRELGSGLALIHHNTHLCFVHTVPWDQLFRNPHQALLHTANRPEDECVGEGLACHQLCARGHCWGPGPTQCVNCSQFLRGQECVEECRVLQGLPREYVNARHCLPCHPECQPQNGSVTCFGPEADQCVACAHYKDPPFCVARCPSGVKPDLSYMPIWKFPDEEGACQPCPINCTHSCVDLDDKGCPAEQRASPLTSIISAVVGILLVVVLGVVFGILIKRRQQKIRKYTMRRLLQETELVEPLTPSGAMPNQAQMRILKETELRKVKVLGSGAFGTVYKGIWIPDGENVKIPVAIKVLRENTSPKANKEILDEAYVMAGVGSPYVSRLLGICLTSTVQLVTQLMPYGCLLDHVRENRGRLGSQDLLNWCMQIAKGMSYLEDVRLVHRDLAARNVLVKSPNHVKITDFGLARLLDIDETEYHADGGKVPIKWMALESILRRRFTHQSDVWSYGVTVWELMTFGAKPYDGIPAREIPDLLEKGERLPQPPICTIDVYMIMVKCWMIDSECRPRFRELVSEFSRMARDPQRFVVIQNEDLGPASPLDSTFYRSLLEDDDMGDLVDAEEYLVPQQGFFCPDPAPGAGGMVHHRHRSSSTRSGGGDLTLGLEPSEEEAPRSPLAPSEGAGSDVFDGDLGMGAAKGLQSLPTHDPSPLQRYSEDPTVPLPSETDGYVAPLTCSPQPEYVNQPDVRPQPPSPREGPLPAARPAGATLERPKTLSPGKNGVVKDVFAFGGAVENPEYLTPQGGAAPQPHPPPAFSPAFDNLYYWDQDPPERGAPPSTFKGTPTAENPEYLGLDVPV

SMILES: C=CC(=O)O[C@H]1Cc2cc3ccc(=O)oc3cc2OC1(C)C [Compound 8, (7S)-(+)-Acrylic acid, 8,8-dimethyl-2-oxo-6,7-dihydro-2H,8H-pyrano [3,2-g]chromen-7-yl ester]
- inhibition at 10 µM (BTK-wt; vs negative control (DMSO), mean of two separate experiments, NA = not active at 10 µM, read-out: % Inhibition (10 µM) BTK-wt): 98.2%
- IC50 (BTK-wt; HotSpot assay, 10 μM ATP, GraphPad Prism): 800 nM
- inhibition at 10 µM (BTK-wt; Table 2 selectivity profile, mean of two experiments, read-out: % Inhibition at 10 µM, BTK): 98.2%
- kinase selectivity (in words) (BTK-wt; over EGFR and TEC family kinases, JAK3): selective for BTK over ITK, EGFR, ERBB4, and JAK3
- inhibition at 10 µM (ERBB2): 59.2%
- permeability (in words) [1]: excellent
- CYP2C9 inhibition (in words) (CYP2C9): moderately inhibited
- CYP inhibition 2C9 (CYP2C9; [2]): 66.1%
- CYP3A4 inhibition (in words) (CYP3A4): rarely inhibited
- CYP inhibition 3A4 (CYP3A4; [2]): <1%

From article PMC7663272, “Discovery of Tricyclic Pyranochromenone as Novel Bruton’s Tyrosine Kinase Inhibitors with In Vivo Antirheumatic Activity” (International Journal of Molecular Sciences, 2020)
